Columns and labels:
[1] = molecular target: T1, secreted soluble GalNAc-T4 (Homo sapiens, UniProt Q8N4A0); experiment: Inhibition of secreted soluble GalNAc-T4 (sT4) binding to GalNAc-MUC1 glycopeptide, ELISA
T1 construct: 6xHis (N); thrombin cleavage site (N); T7 antibody site (N); made in house; host or cells: baculovirus (pAcGP67A), High Five insect cells
How it was run: (§1)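 Plate-coated GalNAc-MUC1 glycopeptide was incubated with biotinylated soluble enzyme in PBS/0.05% Tween20 for 2 h at room temperature, after 1 h preincubation with inhibitor. Enzyme was used at end-point titer. Bound protein was detected with streptavidin-HRP and o-phenylenediamine colour development.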

[2] = molecular target: T2, secreted soluble GalNAc-T2 (Homo sapiens, UniProt Q10471); experiment: Inhibition of secreted soluble GalNAc-T2 (sT2) binding to GalNAc-MUC1 glycopeptide, ELISA
T2 construct: 6xHis (N); thrombin cleavage site (N); T7 antibody site (N); made in house; host or cells: baculovirus (pAcGP67A), High Five insect cells
How it was run: as §1

[3] = system: MUC1 in CHO1d1D/MUC1F-clone2 cells; experiment: MUC1 expression in cell lysates, immunoprecipitation and SDS-PAGE western blot (FIGS. 12-15); format: cell-based, Chinese Hamster; conditions: 2 mM, 48 hours, 5E5 blot
GalNAc-T7 = GalNAc-T7 (Homo sapiens, UniProt Q86SF2); conditions: mM concentrations; cited from earlier work
GalNAc-T2 lectin domain = molecular target: T3, GalNAc-T2 lectin domain (Homo sapiens, UniProt Q10471); experiment: Inhibition of GalNAc-T2 lectin domain (T2ld) binding to GalNAc-MUC1 glycopeptide, ELISA
T3 construct: comprises amino acid residues 408-571 of GALNT2; made in house; host or cells: baculovirus (pAcGP67-A), virus made in Sf9, protein produced in High Five insect cells
T3 sequence (Q10471 408-571): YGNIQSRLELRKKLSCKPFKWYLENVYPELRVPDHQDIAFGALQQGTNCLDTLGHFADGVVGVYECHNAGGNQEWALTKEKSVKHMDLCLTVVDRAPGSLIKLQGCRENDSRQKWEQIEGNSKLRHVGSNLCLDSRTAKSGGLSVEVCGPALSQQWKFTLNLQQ

HT29 MTX cells = conditions: cited from earlier work
O-glycan processing = conditions: cited from earlier work
HT-29 MTX cells = experiment: Viscosity of media from HT-29 MTX cells; format: cell-based, human; conditions: 5 mM; data not shown
Excerpt: In order to evaluate GalNAcβ-benzyl as an inhibitor of mucin glycosylation and secretion we used the cultured colon carcinoma cells of mucin secreting phenotypes: HT-29 metotrexate (MTX) cells selected from the HT-29 cell line by culture in the presence of MTX (kind gift from G. Huet, France). The HT-29 MTX cells were selected to yield a goblet cell like phenotype with constitutive production of MUC5AC. In order to ensure proper goblet cell differentiation the HT29MTX cell line were continuously grown up to 21 days in the presence of 5 mM GalNAcα-benzyl, 5 mM GalNAcβ-benzyl, 5 mM GlcNAcα-benzyl and without inhibitor using culture conditions as described in Hennebicq-Reig et al. (Permanent exposure of mucin-secreting HT-29 cells to benzyl-N-acetyl-alpha-D-galactosaminide induces abnormal O-glycosylation of mucins and inhibits constitutive and stimulated MUC5AC secretion. Biochem J. 1998; 334:283-95). […] Furthermore the viscosity of the media from cells with and without inhibitor was evaluated using viscosity micro-measurement.

β3Gal-T4 = β3Gal-T4 (Homo sapiens, UniProt O96024); conditions: cited from earlier work
β3Gal-T5 = β3Gal-T5 (Homo sapiens, UniProt Q9Y2C3); conditions: cited from earlier work
[4] = molecular target: human GalNAc-T4 (UDP-GalNAc:polypeptide N-acetylgalactosaminyltransferase T4), secreted soluble enzyme (sT4), wild type (Homo sapiens, UniProt Q8N4A0); conditions: binding to GalNAc-MUC1 glycopeptide
Description: The pH of 1 ml purified protein (0.3 mg/ml) in PBS was adjusted to pH 9 with 1 M NaOH and 40 μl N-hydroxy-succinimidobiotin (Sigma) dissolved in DMF (10 mg/ml) was added. The solution was mixed end-over-end for 2 hours at room temperature, and dialyzed three times against PBS and an equal volume of glycerol was added. The biotinylated proteins were stored at −20° C. in 50% glycerol until use.
Glycopeptides were purified by C-18 reverse phase HPLC. Peptides were custom synthesized by Neosystems (Strasbourg). Biotinylated Helix Pomatia lectin (HPA) was from KemEnTec (Denmark). Anti-MUC1 HMFG2 monoclonal antibody was a generous gift from Joyce Taylor-Papadimitriou.
Direct binding ELISA assay was developed as follows: Polystyrene microtiter plates (Maxisorb, Nunc, Denmark) were coated with peptides or enzymatically glycosylated glycopeptides in PBS overnight at 4° C. Plates were washed and blocked with 0.1% Tween20 and 0.2% BSA in PBS for 1 h at room temperature, followed by incubation with biotinylated proteins in PBS with 0.05% Tween20 for 2 h at room temperature. After four washes with PBS, plates were incubated with 1:2,000 dilution streptavidin-HRP (Sigma) in PBS for 30 min at room temperature and washed four times with PBS. […]

T2 sequence (Q10471 52-571 limits assumed): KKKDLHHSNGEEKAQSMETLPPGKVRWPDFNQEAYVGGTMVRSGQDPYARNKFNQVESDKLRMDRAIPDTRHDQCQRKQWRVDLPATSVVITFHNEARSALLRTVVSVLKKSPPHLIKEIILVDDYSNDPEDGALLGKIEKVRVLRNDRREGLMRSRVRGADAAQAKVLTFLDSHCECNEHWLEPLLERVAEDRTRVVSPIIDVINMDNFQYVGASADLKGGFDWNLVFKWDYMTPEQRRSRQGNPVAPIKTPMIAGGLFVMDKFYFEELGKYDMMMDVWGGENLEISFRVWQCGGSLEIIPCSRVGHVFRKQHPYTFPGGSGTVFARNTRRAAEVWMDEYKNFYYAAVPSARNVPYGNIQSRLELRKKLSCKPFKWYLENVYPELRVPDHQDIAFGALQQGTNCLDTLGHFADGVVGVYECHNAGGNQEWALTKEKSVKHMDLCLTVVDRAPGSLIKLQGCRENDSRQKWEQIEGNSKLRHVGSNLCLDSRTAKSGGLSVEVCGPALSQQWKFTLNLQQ
human GalNAc-T4 (UDP-GalNAc:polypeptide N-acetylgalactosaminyltransferase T4), secreted soluble enzyme (sT4), wild type, sequence (Q8N4A0 36-578 limits assumed): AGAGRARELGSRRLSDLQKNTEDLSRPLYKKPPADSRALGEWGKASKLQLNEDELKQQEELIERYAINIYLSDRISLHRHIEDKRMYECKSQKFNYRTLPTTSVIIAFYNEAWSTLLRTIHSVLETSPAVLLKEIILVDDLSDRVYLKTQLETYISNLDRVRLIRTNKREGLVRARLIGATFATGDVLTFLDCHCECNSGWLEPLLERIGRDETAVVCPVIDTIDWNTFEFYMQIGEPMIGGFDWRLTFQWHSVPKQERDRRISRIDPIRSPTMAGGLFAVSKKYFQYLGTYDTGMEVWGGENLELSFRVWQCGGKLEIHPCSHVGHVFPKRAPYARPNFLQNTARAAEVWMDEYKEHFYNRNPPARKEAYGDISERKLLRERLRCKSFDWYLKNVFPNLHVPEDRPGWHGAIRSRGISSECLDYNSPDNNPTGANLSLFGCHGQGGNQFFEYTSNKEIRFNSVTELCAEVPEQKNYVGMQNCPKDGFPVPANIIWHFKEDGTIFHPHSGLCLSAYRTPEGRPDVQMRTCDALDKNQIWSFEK
T1 sequence (Q8N4A0 36-578 limits assumed): as above
β3Gal-T5, sequence (Q9Y2C3 whole entry, species assumed): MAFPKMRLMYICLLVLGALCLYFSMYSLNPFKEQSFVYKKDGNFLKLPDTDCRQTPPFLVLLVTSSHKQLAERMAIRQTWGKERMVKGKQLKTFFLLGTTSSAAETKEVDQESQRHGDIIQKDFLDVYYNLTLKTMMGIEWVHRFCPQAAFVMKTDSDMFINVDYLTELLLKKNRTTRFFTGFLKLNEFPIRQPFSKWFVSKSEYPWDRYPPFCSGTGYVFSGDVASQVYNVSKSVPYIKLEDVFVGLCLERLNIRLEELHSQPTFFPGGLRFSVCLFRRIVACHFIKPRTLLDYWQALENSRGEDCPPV
GalNAc-T7, sequence (Q86SF2 whole entry, the tested form may be a part): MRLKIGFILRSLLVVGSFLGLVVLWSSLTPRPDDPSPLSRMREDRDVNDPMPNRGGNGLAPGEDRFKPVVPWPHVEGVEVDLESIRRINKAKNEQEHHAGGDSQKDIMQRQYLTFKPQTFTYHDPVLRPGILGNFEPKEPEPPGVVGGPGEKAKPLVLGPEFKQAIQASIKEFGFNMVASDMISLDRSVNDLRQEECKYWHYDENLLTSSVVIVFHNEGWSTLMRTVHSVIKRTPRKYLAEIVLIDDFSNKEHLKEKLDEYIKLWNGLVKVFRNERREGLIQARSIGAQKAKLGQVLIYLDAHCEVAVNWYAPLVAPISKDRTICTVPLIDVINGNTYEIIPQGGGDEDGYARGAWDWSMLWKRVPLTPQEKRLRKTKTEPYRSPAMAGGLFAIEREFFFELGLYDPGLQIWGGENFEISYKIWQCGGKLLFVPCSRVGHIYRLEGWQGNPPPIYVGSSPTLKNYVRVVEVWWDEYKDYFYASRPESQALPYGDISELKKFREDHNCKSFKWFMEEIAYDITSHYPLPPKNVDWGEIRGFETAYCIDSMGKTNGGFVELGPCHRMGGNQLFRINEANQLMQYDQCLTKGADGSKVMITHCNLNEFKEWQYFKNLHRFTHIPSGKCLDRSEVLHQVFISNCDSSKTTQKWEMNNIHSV
β3Gal-T4, sequence (O96024 whole entry): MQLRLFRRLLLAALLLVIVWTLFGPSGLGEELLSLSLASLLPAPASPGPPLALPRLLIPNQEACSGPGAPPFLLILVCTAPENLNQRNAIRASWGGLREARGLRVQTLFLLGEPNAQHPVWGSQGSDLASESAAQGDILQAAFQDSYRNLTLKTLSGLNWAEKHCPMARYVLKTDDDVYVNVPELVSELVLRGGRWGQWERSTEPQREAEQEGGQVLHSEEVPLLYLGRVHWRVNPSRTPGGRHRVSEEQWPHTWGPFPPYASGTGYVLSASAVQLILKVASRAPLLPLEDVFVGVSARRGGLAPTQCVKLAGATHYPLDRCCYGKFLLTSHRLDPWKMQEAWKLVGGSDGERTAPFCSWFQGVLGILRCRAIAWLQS

CC(=O)N[C@H]1[C@@H](OCc2ccccc2)O[C@H](CO)[C@H](O)[C@@H]1O [BzlαGalNAc, benzyl-N-acetyl-alpha-D-galactosaminide]
IC50 [1]: 1 mM | IC50 [2]: 15 mM | MUC1 expression [3]: significant reduction | inhibition of lectin mediated GalNAc-glycopeptide substrate specificity of GalNAc-T7 (GalNAc-T7): can inhibit | IC50 (GalNAc-T2 lectin domain): 20 mM

CC(=O)N[C@H]1[C@@H](OCc2ccccc2)O[C@H](CO)[C@H](O)[C@@H]1O [GalNAcα-benzyl, benzyl-N-acetyl-alpha-D-galactosaminide]
inhibition of mucin secretion (HT29 MTX cells): Inhibition of mucin secretion | inhibition of O-glycan processing / sialylation (O-glycan processing): inhibit sialylation

CC(=O)N[C@H]1[C@H](OCc2ccccc2)O[C@H](CO)[C@H](O)[C@@H]1O [GalNAcβ-benzyl]
viscosity of media (HT-29 MTX cells): less viscous | activity of β3Gal-T4 with the compound as acceptor (β3Gal-T4): no or very poor activity | activity of β3Gal-T5 with the compound as acceptor (β3Gal-T5): no or very poor activity

CC(=O)N[C@H]1[C@@H](OCc2ccccc2)O[C@H](CO)[C@@H](O)[C@@H]1O [GlcNAcα-benzyl]
inhibition of GalNAc-T4 lectin binding (in words) [4]: no inhibition

From patent publication US20080038809A1, “ISOLATED LECTIN POLYPEPTIDES CONSISTING OF TRUNCATED […] UDP-GalNAc:POLYPEPTIDE N- ACETYLGALACTOSAMINYLTRANSFERASES” (GLYCOZYM APS, priority 2002, published 2008)
